Results reported in patent US5342851A, “Substituted thiazole derivatives useful as platelet aggregation inhibitors” (McNeil-PPC, Inc., priority 1992, dated 1994).
Counter-ions that a name gives are not always drawn.

Experiments:
[1] = tested on: activated platelets (125I-fibrinogen binding); test: Fibrinogen Binding (125I-fibrinogen binding to activated platelets); conditions: read-out: Binding (IC50, concentration of compound which provides 50% fibrinogen binding); thrombin-stimulated platelets; 0.15 μM 125I-fibrinogen
Description: The compounds of the invention as identified above are evaluated for platelet aggregation inhibition activity as indicated by the percentage of nonaggregated platelets which are available for binding in accordance with the following procedure.
Briefly, 40 mL of PRP (obtained from Biological Specialty Corp., Lansdale, Pa.) are centrifuged at 120×g to remove contaminating red cells. Aspirin (50 μM) is added and the PRP is incubated at 37° C. for 20 minutes. […] Platelets are concentrated by a 300×g centrifugation (10 minutes) and the pellet is resuspended in 4 mL. of Tyrode's buffer. The platelet suspension (4 mL) is gel-filtered through a Sepharose-2B column (50 mL bed volume). […] The binding reaction is performed in polystyrene tubes (final volume […]). Reagents are added in the following order: 80 mL of Tyrode's buffer, 50 mL of CaCl2 (final concentration (f.c.) […]) and 50 mL of thrombin (f.c. 0.1 unit/mL). The platelet suspension is then added and the mixture is allowed to incubate at room temperature for 2 minutes. Hirudin (50 mL, f.c. 0.5 unit/mL) is immediately added to prevent the catalytic activity of thrombin. […] The mixture is incubated for 10 minutes at room temperature. To terminate the binding reaction the platelets are sedimented (10,000×g for 3 minutes) through silicone oil (3:1 hi-phenol 550/methyl silicone 200, W. F. Nye, Inc., New Bedford, Mass.), in an Eppendorf centrifuge.
The amount of platelet radioactivity measured in the presence of nonlabeled fibrinogen (4 mg/mL) is considered the nonspecific binding. All samples are repeated in triplicate.
Positive percentages of fibrinogen binding indicates higher activity for inhibiting platelet aggregation since only non-aggregated or free platelets are available for fibrinogen binding.

[2] = tested on: platelets (gel-filtered platelet rich plasma); test: Platelet Aggregation Inhibition Activity (agonist thrombin or ADP, light transmission); assay type: cell-based; conditions: for IC50: read-out: Aggregation (IC50, concentration at which the increase in light transmission equals 50%), thrombin or ADP agonist, 37° C., three minutes
Description: The percentage of platelet aggregation is calculated as an increase in light transmission of drug treated platelet concentrate versus control treated platelet concentrate. Blood is obtained from drug free, normal donors into tubes containing 0.13M sodium citrate (two sources are routinely used: platelet concentrate obtained from Biological Specialty Corp., Lansdale, Pa. or whole blood obtained from donors). Platelet rich plasma (PRP) is collected by centrifugation of the concentrate or whole blood at 130×g for 15 minutes at 25° C. The PRP (5 mL) is gel filtered through Sepharose 2B (bed volume 50 mL), and the platelet count is adjusted to 2×10^7 platelets per sample. The following constituents are added to a siliconized cuvette: 250 μL of the concentrated platelet filtrate, 100 μL of Tyrode's buffer (0.14M NaCl, 0.0027M KCl, 0.012M NaHCO3, 0.76 mM Na2 HPO4, 0.0055M glucose and 2 mg/mL BSA pH 7.4), 50 μL of 2 mM calcium and test drug (50 mL).
Aggregation is monitored in a dual channel Chrono-log Aggregometer for three minutes following the addition of agonist (thrombin 50 μL of 1 unit/mL, or ADP 50 μL of 100 μM). The final assay volume is 500 μL. The reaction takes place at 37° C. The peak aggregation response is calculated as the increase in light transmission units over a three minute period. The difference of the increase in light transmission between control and drug treated platelets is then expressed as a percent of the nondrug treated controls. […] A percentage increase in light transmission indicates platelet aggregation inhibition activity for the tested compound.

[3] = Homo sapiens, thrombin or ADP agonist, read-out: Aggregation (percentage increase in light transmission)

SMILES: CCN(CC)CCNC(=O)c1cnn(-c2nc(-c3cccc(C(F)(F)F)c3)cs2)c1C(F)(F)F [Example 34]
- IC50 [1]: 6 µM

SMILES: CCN(CC)CCNC(=O)c1cnn(-c2nc(-c3ccc([N+](=O)[O-])cc3)cs2)c1C(F)(F)F [Example 35]
- IC50 [2]: 75 µM

SMILES: CN(C)CCCNC(=O)c1cnn(-c2nc(-c3ccc([N+](=O)[O-])cc3)cs2)c1C(F)(F)F [Example 36]
- IC50 [1]: 50 µM

SMILES: CCN(CC)CCCNC(=O)c1cnn(-c2nc(-c3cccc(C(F)(F)F)c3)cs2)c1C(F)(F)F [Example 37]
- IC50 [1]: 4 µM
- IC50 [2]: 15 µM

SMILES: CCCCN(CCCC)CCCNC(=O)c1cnn(-c2nc(-c3cccc(C(F)(F)F)c3)cs2)c1C(F)(F)F [Example 38]
- IC50 [1]: 75 µM
- IC50 [2]: 56 µM

SMILES: CN(C)CCCNC(=O)c1cnn(-c2nc(-c3cccc(C(F)(F)F)c3)cs2)c1C(F)(F)F [Example 39]
- IC50 [1]: 16 µM
- IC50 [2]: 30 µM

SMILES: CCN(CC)CCCNC(=O)c1cnn(-c2nc(-c3cccc(OC)c3)cs2)c1C(F)(F)F [Example 40]
- IC50 [1]: 65 µM
- IC50 [2]: 30 µM

SMILES: CCN(CC)CCCNC(=O)c1cnn(-c2nc(-c3ccc(OC)cc3)cs2)c1C(F)(F)F [Example 41]
- IC50 [2]: 30 µM

SMILES: CCN(CC)CCCNC(=O)c1cnn(-c2nc(-c3ccc(C)cc3)cs2)c1C(F)(F)F [Example 43]
- IC50 [1]: 70 µM
- IC50 [2]: 6 µM

SMILES: CCCCN(CCCC)CCCNC(=O)c1cnn(-c2nc(-c3ccc(C)cc3)cs2)c1C(F)(F)F [Example 45]
- IC50 [1]: 8.5 µM
- IC50 [2]: 45 µM

SMILES: CCN(CC)CCCNC(=O)c1cnn(-c2nc(-c3cccc(C(F)(F)F)c3)c(Br)s2)c1C(F)(F)F [Example 46]
- IC50 [1]: 11.3 µM
- IC50 [2]: 2.7 µM

SMILES: CCN(CC)CCCNC(=O)c1cnn(-c2nc(-c3cc(OC)c(OC)c(OC)c3)cs2)c1C(F)(F)F [Example 47]
- IC50 [2]: 5.6 µM

SMILES: CCN(CC)CCCNC(=O)c1cnn(-c2nc(-c3ccccc3)cs2)c1C(F)(F)F [Example 50]
- IC50 [1]: 50 µM
- IC50 [2]: 30 µM

SMILES: O=C(NCCN1CCCC1)c1cnn(-c2nc(-c3cccc(C(F)(F)F)c3)cs2)c1C(F)(F)F [Example 51]
- IC50 [2]: 30 µM

SMILES: CCN(CC)CCCCNC(=O)c1cnn(-c2nc(-c3cccc(C(F)(F)F)c3)cs2)c1C(F)(F)F [Example 52]
- IC50 [2]: 6 µM

SMILES: CC1CCCCN1CCCNC(=O)c1cnn(-c2nc(-c3cccc(C(F)(F)F)c3)cs2)c1C(F)(F)F (stereo not shown) [Example 54]
- IC50 [2]: 10 µM

SMILES: Cc1cccc(-c2csc(-n3ncc(C(=O)NCCN4CCCCC4)c3C(F)(F)F)n2)c1 [Example 55]
- IC50 [2]: 30 µM

SMILES: CCN(CC)CCCNC(=O)c1cnn(-c2nc(-c3ccc(C(F)(F)F)cc3)cs2)c1C(F)(F)F [Example 56]
- IC50 [2]: 4 µM

SMILES: O=C(NCCN1CCCCC1)c1cnn(-c2nc(-c3ccc(C(F)(F)F)cc3)cs2)c1C(F)(F)F [Example 57]
- IC50 [2]: 7 µM

SMILES: NCCCCCNC(=O)c1cnn(-c2nc(-c3cccc(C(F)(F)F)c3)cs2)c1C(F)(F)F [Example 61]
- IC50 [2]: 11.5 µM

SMILES: NCCCCNC(=O)c1cnn(-c2nc(-c3cccc(C(F)(F)F)c3)cs2)c1C(F)(F)F [Example 62]
- IC50 [1]: 8.3 µM
- IC50 [2]: 4.6 µM

SMILES: O=C(NCCCN1CCCCC1)c1cnn(-c2nc(-c3cccc(C(F)(F)F)c3)cs2)c1C(F)(F)F [Example 89, 2-[4-[3-(N-Piperidino)propylcarbamoyl]-5-(trifluoromethyl)pyrazol-1-yl]-4-(3-trifluoromethylphenyl)thiazole]
- IC50 [1]: 10 µM
- IC50 [2]: 13 µM

SMILES: O=C(NCCCN1CCCC1)c1cnn(-c2nc(-c3cccc(C(F)(F)F)c3)cs2)c1C(F)(F)F [Example 90]
- IC50 [1]: 14 µM
- IC50 [2]: 15 µM

SMILES: Cc1c(C(=O)NCCCN2CCCCC2)cnn1-c1nc(-c2cccc(C(F)(F)F)c2)cs1 [Example 91]
- IC50 [1]: 10 µM
- IC50 [2]: 5 µM

SMILES: Cc1ccc(-c2csc(-n3ncc(C(=O)NCCCN4CCCCC4)c3C(F)(F)F)n2)cc1 [Example 92]
- IC50 [2]: 10 µM

SMILES: Cc1ccc(-c2csc(-n3ncc(C(=O)NCCCN4CCCC4)c3C(F)(F)F)n2)cc1 [Example 93]
- IC50 [2]: 30 µM

SMILES: O=C(NCCCN1CCCCC1)c1cnn(-c2nc(-c3ccccc3)cs2)c1C(F)(F)F [Example 94]
- IC50 [2]: 40 µM

SMILES: Cc1ccc(-c2csc(-n3ncc(C(=O)NCCCNC4CCCCC4)c3C(F)(F)F)n2)cc1 [Example 96]
- IC50 [2]: 3.5 µM

SMILES: O=C(NCCCN1CCCCC1)c1cnn(-c2nc(-c3ccc(Cl)c(Cl)c3)cs2)c1C(F)(F)F [Example 97]
- IC50 [2]: 10 µM

SMILES: Cc1cccc(-c2csc(-n3ncc(C(=O)NCCCN4CCCC4)c3C(F)(F)F)n2)c1 [Example 99]
- IC50 [2]: 30 µM

SMILES: O=C(NCCCN1CCCCC1)c1cnn(-c2nc(-c3ccccc3C(F)(F)F)cs2)c1C(F)(F)F [Example 100]
- IC50 [2]: 30 µM

SMILES: O=C(NCCCN1CCCC1)c1cnn(-c2nc(-c3ccccc3C(F)(F)F)cs2)c1C(F)(F)F [Example 101]
- IC50 [2]: 15 µM

SMILES: O=C(NCCCNC1CCCCC1)c1cnn(-c2nc(-c3cccc(C(F)(F)F)c3)cs2)c1C(F)(F)F [Example 102]
- IC50 [1]: 25 µM
- IC50 [2]: 6 µM

SMILES: O=C(NCCCNC1CCCCC1)c1cnn(-c2nc(-c3ccc(C(F)(F)F)cc3)cs2)c1C(F)(F)F [Example 105]
- IC50 [1]: 44 µM
- IC50 [2]: 8 µM

SMILES: O=C(NCCCN1CCCCC1)c1cnn(-c2nc(-c3cccc(Cl)c3)cs2)c1C(F)(F)F [Example 106]
- IC50 [2]: 30 µM

SMILES: O=C(NCCCNC1CCCCC1)c1cnn(-c2nc(-c3cccc(Cl)c3)cs2)c1C(F)(F)F [Example 107]
- IC50 [2]: 5 µM

SMILES: O=C(NCCCNC1CCCCC1)c1cnn(-c2nc(-c3cccc(C(F)(F)F)c3)cs2)c1-c1ccccc1 [Example 108]
- IC50 [2]: 20 µM

SMILES: O=C(NCCCN1CCCCCC1)c1cnn(-c2nc(-c3cccc(C(F)(F)F)c3)cs2)c1C(F)(F)F [Example 109]
- IC50 [2]: 6 µM

SMILES: CC(C)NCCCNC(=O)c1cnn(-c2nc(-c3cccc(C(F)(F)F)c3)cs2)c1C(F)(F)F [Example 112]
- IC50 [2]: 5 µM

SMILES: CCCCNCCCNC(=O)c1cnn(-c2nc(-c3cccc(C(F)(F)F)c3)cs2)c1C(F)(F)F [Example 113]
- IC50 [1]: 10 µM
- IC50 [2]: 3.1 µM

SMILES: CCCNCCCNC(=O)c1cnn(-c2nc(-c3cccc(C(F)(F)F)c3)cs2)c1C(F)(F)F [Example 114]
- IC50 [1]: 10 µM
- IC50 [2]: 7 µM

SMILES: CN1CCN(CCCNC(=O)c2cnn(-c3nc(-c4cccc(C(F)(F)F)c4)cs3)c2-c2ccccc2)CC1 [Example 120]
- IC50 [1]: 23 µM
- IC50 [2]: 13 µM

SMILES: NCCCNC(=O)c1cnn(-c2nc(-c3cccc(C(F)(F)F)c3)cs2)c1C(F)(F)F [Example 121, 2-[4-(3-Aminopropylcarbamoyl)-5-(trifluoromethyl)pyrazol-1-yl]-4-(3-trifluoromethylphenyl)thiazole Monohydrochloride]
- IC50 [1]: 15 µM
- IC50 [2]: 6 µM

SMILES: NCCCNC(=O)c1cnn(-c2nc(-c3cccc(Cl)c3)cs2)c1C(F)(F)F [Example 122]
- IC50 [1]: 10 µM
- IC50 [2]: 14.7 µM

SMILES: CN(C)C=NCCCNC(=O)c1cnn(-c2nc(-c3cccc(Cl)c3)cs2)c1C(F)(F)F [Example 132, 2-[4-(3-(N,N-Dimethylformamidinyl)propylcarbamoyl]5-(trifluoromethyl)pyrazol-1-yl]-4-(3-chlorophenyl)thiazole]
- IC50 [2]: 7 µM

SMILES: NCCCOCc1cnn(-c2nc(-c3cccc(C(F)(F)F)c3)cs2)c1C(F)(F)F [Example 138, 2-[4-[3-Aminopropoxymethyl]-5-(trifluoromethyl)pyrazol-1-yl]-4-(3-trifluoromethylphenyl)thiazole Hydrochloride]
- IC50 [2]: 2.1 µM

SMILES: CCN(CC)CCNC(=O)c1ccc(-c2csc(-c3ccc(Cl)cc3)n2)cc1 [Example 177]
- IC50 [2]: 12.8 µM

SMILES: CCN(CC)CCNC(=O)c1ccc(-c2csc(-c3ccc(C(C)(C)C)cc3)n2)cc1 [Example 181]
- inhibition at 20 µM [2, 3]: 85%

SMILES: COc1ccc(-c2nc(-c3ccc(C(=O)NCCCN(C)C)cc3)cs2)cc1 [Example 187]
- inhibition at 20 µM [2, 3]: 89%

SMILES: CC(C)N(CCCCNC(=O)c1ccc(-c2csc(-c3ccc(C(F)(F)F)cc3)n2)cc1)C(C)C [Example 189]
- inhibition at 20 µM [2, 3]: 86%

SMILES: CCN(CC)CCCNC(=O)c1ccc(-c2csc(COc3ccc(Cl)cc3)n2)cc1 [Example 206]
- IC50 [2]: 5.1 µM

SMILES: CCCCNCCCNC(=O)c1ccc(-c2csc(-c3ccc(C(F)(F)F)cc3)n2)cc1 [Example 218]
- inhibition at 20 µM [2, 3]: 90%

SMILES: Cn1c(C(=O)NCCCNC2CCCCC2)ccc1-c1nc(-c2cccc(C(F)(F)F)c2)cs1 [Example 236, 2-[2-(4-Cyclohexylaminopropylcarbamoyl)-1-methyl-1H-pyrrol-5-yl]-4(3-trifluoromethylphenyl)thiazole]
- IC50 [1]: 13.5 µM

SMILES: Cn1c(C(=O)NCCCN)ccc1-c1nc(-c2ccccc2)c(C(=O)O)s1 [Example 237, 2-[2-(4-Aminopropylcarbamoyl)-1-methyl-1H-pyrrol-5-yl]-4-phenyl-1,3-thiazole-5-carboxylic acid monohydrochloride monohydrate]
- inhibition at 50 µM ([2]; Homo sapiens, at 50 μM, thrombin or ADP agonist, read-out: Aggregation (percentage increase in light transmission)): 68%
